Laboratory results from US9708314B2, “Heterocyclic amide compound” (NISSAN CHEMICAL INDUSTRIES, LTD., priority 2013, dated 2017).

Tests used:
Format in all cases: in vivo
Setaria viridis = assay: Test Example 4: herbicidal effect by application to foliage (diluvial soil, plastic box); settings: application to foliage, 320 g/ha
Summary of the method: (§1)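 Scores run from 0 (herbicidal ratio ≤5%) to 5 (≥90%, almost fully withered) and were assessed three weeks after foliar spraying. Seedlings had been raised for 14 days at 25-30° C in sterilized diluvial soil before treatment, with the emulsion diluted in water to the stated g/ha dose.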

[1] = tested on: Echinochloa crus-galli var. crus-galli; assay: as above; settings: application to foliage, 320 g/ha
Summary of the method: as §1

Avena fatua = assay: as above; settings: application to foliage, 320 g/ha
Summary of the method: as §1

Galium spurium = assay: as above; settings: application to foliage, 320 g/ha
Summary of the method: as §1

Chenopodium album = assay: as above; settings: application to foliage, 320 g/ha
Summary of the method: as §1

Alopecurus myosuroides = assay: as above; settings: application to foliage, 320 g/ha
Summary of the method: as §1

Stellaria media = assay: as above; settings: application to foliage, 320 g/ha
Summary of the method: as §1

Apera spica-venti. = assay: as above; settings: application to foliage, 320 g/ha
Summary of the method: as §1

Digitaria ciliaris = assay: as above; settings: application to foliage, 320 g/ha
Summary of the method: as §1

Lolium multiflorum Lam. = assay: as above; settings: application to foliage, 320 g/ha
Summary of the method: as §1

Abutilon theophrasti = assay: as above; settings: application to foliage, 320 g/ha
Summary of the method: as §1

Veronica persica = assay: as above; settings: application to foliage, 320 g/ha
Summary of the method: as §1

Amaranthus retroflexus = assay: as above; settings: application to foliage, 320 g/ha
Summary of the method: as §1

Scirpus juncoides = assay: Test Example 2: herbicidal activity, application during weed generation in submerged conditions; settings: Eighteenth Table; application herbicide amount 320 g/ha
Summary of the method: (§2)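 Alluvial soil in Wagner pots flooded to 4 cm water depth; seeds sown mixed, grown in greenhouse at 25–30 °C. At one- to two-leaf stage, emulsion diluted with water to the set rate (g/ha) was applied to the water surface. Effect scored 0–5 by herbicidal ratio three weeks later.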

[2] = tested on: Echinochloa oryzacola Vasing.; assay: as above; settings: Eighteenth Table; application herbicide amount 320 g/ha
Summary of the method: as §2

Monochoria vaginalis = assay: as above; settings: Eighteenth Table; application herbicide amount 320 g/ha
Summary of the method: as §2

[3] = tested on: directly sowed Oryza sativa; assay: Test Example 4: effect on crop by application to foliage (diluvial soil, plastic box); settings: application to foliage, 320 g/ha
Summary of the method: as §1

Brassica campestris L. = assay: as above; settings: application to foliage, 320 g/ha
Summary of the method: as §1

Zea mays = assay: as above; settings: application to foliage, 320 g/ha
Summary of the method: as §1

Triticum aestivum = assay: as above; settings: application to foliage, 320 g/ha
Summary of the method: as §1

Glycine max = assay: as above; settings: application to foliage, 320 g/ha
Summary of the method: as §1

[4] = tested on: Beta vulgaris ssp. vulgaris; assay: as above; settings: application to foliage, 320 g/ha
Summary of the method: as §1

SMILES | herbicidal effect, G (Setaria viridis) (Setaria viridis) | herbicidal effect, H (Echinochloa crus-galli var. crus-galli) [1] | herbicidal effect, I (Avena fatua) (Avena fatua) | herbicidal effect, Q (Galium spurium) (Galium spurium) | herbicidal effect, O (Chenopodium album) (Chenopodium album) | herbicidal effect, J (Alopecurus myosuroides) (Alopecurus myosuroides) | herbicidal effect, P (Stellaria media) (Stellaria media) | herbicidal effect, L (Apera spica-venti.) (Apera spica-venti.) | herbicidal effect, F (Digitaria ciliaris) (Digitaria ciliaris) | herbicidal effect, K (Lolium multiflorum Lam.) (Lolium multiflorum Lam.) | herbicidal effect, M (Abutilon theophrasti) (Abutilon theophrasti) | herbicidal effect, R (Veronica persica) (Veronica persica) | herbicidal effect, N (Amaranthus retroflexus) (Amaranthus retroflexus) | B (Scirpus juncoides) herbicidal ratio grade (Scirpus juncoides) | A (Echinochloa oryzicola Vasing.) herbicidal ratio grade [2] | C (Monochoria vaginalis) herbicidal ratio grade (Monochoria vaginalis) | effect on crop, d (directly sowed Oryza sativa) [3] | effect on crop, g (Brassica campestris L.) (Brassica campestris L.) | effect on crop, b (Zea mays) (Zea mays) | effect on crop, e (Triticum aestivum) (Triticum aestivum) | further results
Cn1nnnc1NC(=O)c1ccc(C(F)(F)F)n2c(N3CCSCC3)nnc12 [2-078] | 5 (Herbicidal ratio of 90% or more (almost completely withered)) | 5 (Herbicidal ratio of 90% or more (almost completely withered)) | 3 (Herbicidal ratio of 40% or more and less than 70%) | 4 (Herbicidal ratio of 70% or more and less than 90%) | 5 (Herbicidal ratio of 90% or more (almost completely withered)) | 4 (Herbicidal ratio of 70% or more and less than 90%) | 5 (Herbicidal ratio of 90% or more (almost completely withered)) | 5 (Herbicidal ratio of 90% or more (almost completely withered)) | 5 (Herbicidal ratio of 90% or more (almost completely withered)) | 4 (Herbicidal ratio of 70% or more and less than 90%) | 5 (Herbicidal ratio of 90% or more (almost completely withered)) | 5 (Herbicidal ratio of 90% or more (almost completely withered)) | 5 (Herbicidal ratio of 90% or more (almost completely withered)) | 4 (Herbicidal ratio of 70% or more and less than 90%) | 4 (Herbicidal ratio of 70% or more and less than 90%) | 3 (Herbicidal ratio of 40% or more and less than 70%) | 4 (Herbicidal ratio of 70% or more and less than 90%) | 5 (Herbicidal ratio of 90% or more (almost completely withered)) | 4 (Herbicidal ratio of 70% or more and less than 90%) | 2 (Herbicidal ratio of 20% or more and less than 40%) | effect on crop, c (Glycine max) (Glycine max): 1 (Herbicidal ratio of 5% or more and less than 20%); effect on crop, f (Beta vulgaris ssp. vulgaris) [4]: 5 (Herbicidal ratio of 90% or more (almost completely withered))
COCCN(C)c1nnc2c(C(=O)Nc3nnnn3C)ccc(C(F)(F)F)n12 [2-079] | 5 (Herbicidal ratio of 90% or more (almost completely withered)) | 5 (Herbicidal ratio of 90% or more (almost completely withered)) | 3 (Herbicidal ratio of 40% or more and less than 70%) | 4 (Herbicidal ratio of 70% or more and less than 90%) | 5 (Herbicidal ratio of 90% or more (almost completely withered)) | 4 (Herbicidal ratio of 70% or more and less than 90%) | 5 (Herbicidal ratio of 90% or more (almost completely withered)) | 5 (Herbicidal ratio of 90% or more (almost completely withered)) | 5 (Herbicidal ratio of 90% or more (almost completely withered)) | 2 (Herbicidal ratio of 20% or more and less than 40%) | 5 (Herbicidal ratio of 90% or more (almost completely withered)) | 5 (Herbicidal ratio of 90% or more (almost completely withered)) | 5 (Herbicidal ratio of 90% or more (almost completely withered)) | 5 (Herbicidal ratio of 90% or more (almost completely withered)) | 5 (Herbicidal ratio of 90% or more (almost completely withered)) | 5 (Herbicidal ratio of 90% or more (almost completely withered)) | 4 (Herbicidal ratio of 70% or more and less than 90%) | 5 (Herbicidal ratio of 90% or more (almost completely withered)) | 5 (Herbicidal ratio of 90% or more (almost completely withered)) | 2 (Herbicidal ratio of 20% or more and less than 40%) | effect on crop, c (Glycine max) (Glycine max): 2 (Herbicidal ratio of 20% or more and less than 40%); effect on crop, f (Beta vulgaris ssp. vulgaris) [4]: 5 (Herbicidal ratio of 90% or more (almost completely withered))
CSCCNc1nnc2c(C(=O)Nc3nnnn3C)ccc(C(F)(F)F)n12 [2-080] | 3 (Herbicidal ratio of 40% or more and less than 70%) | 5 (Herbicidal ratio of 90% or more (almost completely withered)) | 1 (Herbicidal ratio of 5% or more and less than 20%) | 4 (Herbicidal ratio of 70% or more and less than 90%) | 5 (Herbicidal ratio of 90% or more (almost completely withered)) | 1 (Herbicidal ratio of 5% or more and less than 20%) | 4 (Herbicidal ratio of 70% or more and less than 90%) | 3 (Herbicidal ratio of 40% or more and less than 70%) | 5 (Herbicidal ratio of 90% or more (almost completely withered)) | 0 (Herbicidal ratio of 5% or less (almost no effect)) | 5 (Herbicidal ratio of 90% or more (almost completely withered)) | 5 (Herbicidal ratio of 90% or more (almost completely withered)) | 5 (Herbicidal ratio of 90% or more (almost completely withered)) | 1 (Herbicidal ratio of 5% or more and less than 20%) | 2 (Herbicidal ratio of 20% or more and less than 40%) | 0 (Herbicidal ratio of 5% or less (almost no effect)) | 4 (Herbicidal ratio of 70% or more and less than 90%) | 5 (Herbicidal ratio of 90% or more (almost completely withered)) | 3 (Herbicidal ratio of 40% or more and less than 70%) | 0 (Herbicidal ratio of 5% or less (almost no effect)) | effect on crop, c (Glycine max) (Glycine max): 0 (Herbicidal ratio of 5% or less (almost no effect)); effect on crop, f (Beta vulgaris ssp. vulgaris) [4]: 5 (Herbicidal ratio of 90% or more (almost completely withered))
C=CCn1nnnc1NC(=O)c1ccc(C(F)(F)F)n2c(C(C)C)nnc12 [2-091] | 5 (Herbicidal ratio of 90% or more (almost completely withered)) | 5 (Herbicidal ratio of 90% or more (almost completely withered)) | 3 (Herbicidal ratio of 40% or more and less than 70%) | 4 (Herbicidal ratio of 70% or more and less than 90%) | 5 (Herbicidal ratio of 90% or more (almost completely withered)) | 2 (Herbicidal ratio of 20% or more and less than 40%) | 5 (Herbicidal ratio of 90% or more (almost completely withered)) | 3 (Herbicidal ratio of 40% or more and less than 70%) | 5 (Herbicidal ratio of 90% or more (almost completely withered)) | 3 (Herbicidal ratio of 40% or more and less than 70%) | 4 (Herbicidal ratio of 70% or more and less than 90%) | 4 (Herbicidal ratio of 70% or more and less than 90%) | 4 (Herbicidal ratio of 70% or more and less than 90%) | 5 (Herbicidal ratio of 90% or more (almost completely withered)) | 4 (Herbicidal ratio of 70% or more and less than 90%) | 4 (Herbicidal ratio of 70% or more and less than 90%) | 3 (Herbicidal ratio of 40% or more and less than 70%) | 5 (Herbicidal ratio of 90% or more (almost completely withered)) | 2 (Herbicidal ratio of 20% or more and less than 40%) | 3 (Herbicidal ratio of 40% or more and less than 70%) | effect on crop, c (Glycine max) (Glycine max): 0 (Herbicidal ratio of 5% or less (almost no effect)); effect on crop, f (Beta vulgaris ssp. vulgaris) [4]: 5 (Herbicidal ratio of 90% or more (almost completely withered))
